# Values joined by “and” are separate entries in the source; they are usually repeats but may differ in a detail not shown here. Equal values may be shown once. Active and inactive are the calls of the source.
# What was measured:
# Streptokinase A = biological target: T1, Streptokinase A (Streptococcus pyogenes serotype M1, UniProt P10520); test: viability-normalized secreted streptokinase activity reduction – plasminogen activation absorbance, OD405, dose response (AID 1914); format: functional, Streptococcus pyogenes M1 GAS;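 note: secreted streptokinase activity via plasminogen activation per viability signal from cell pellet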
# T1 sequence (P10520 whole entry): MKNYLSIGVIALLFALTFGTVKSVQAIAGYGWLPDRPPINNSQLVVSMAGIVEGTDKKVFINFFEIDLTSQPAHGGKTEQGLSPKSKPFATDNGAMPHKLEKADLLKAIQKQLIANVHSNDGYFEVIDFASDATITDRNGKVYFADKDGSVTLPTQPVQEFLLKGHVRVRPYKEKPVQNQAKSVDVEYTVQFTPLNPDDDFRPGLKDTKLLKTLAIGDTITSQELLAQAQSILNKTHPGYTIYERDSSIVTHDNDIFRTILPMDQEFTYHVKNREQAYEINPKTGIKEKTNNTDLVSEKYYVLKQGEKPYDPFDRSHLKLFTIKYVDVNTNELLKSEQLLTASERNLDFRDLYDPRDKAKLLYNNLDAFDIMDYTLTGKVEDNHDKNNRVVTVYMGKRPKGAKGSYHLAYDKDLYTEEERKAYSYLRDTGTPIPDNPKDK
# [1] = fluconazole-exposed Candida albicans growth modulators – fluorescence, retest, confirmation (AID 2467); format: functional, cell-based
# [2] = biological target: T2, Rac GTPase-activating protein 1 (Homo sapiens, UniProt Q9H0H5); test: blockers of MgcRacGAP-driven Rac1 GTP hydrolysis – biochemical, ADP Hunter fluorescence, primary and confirmatory, confirmation (AID 624330); format: functional
# T2 sequence (Q9H0H5 whole entry): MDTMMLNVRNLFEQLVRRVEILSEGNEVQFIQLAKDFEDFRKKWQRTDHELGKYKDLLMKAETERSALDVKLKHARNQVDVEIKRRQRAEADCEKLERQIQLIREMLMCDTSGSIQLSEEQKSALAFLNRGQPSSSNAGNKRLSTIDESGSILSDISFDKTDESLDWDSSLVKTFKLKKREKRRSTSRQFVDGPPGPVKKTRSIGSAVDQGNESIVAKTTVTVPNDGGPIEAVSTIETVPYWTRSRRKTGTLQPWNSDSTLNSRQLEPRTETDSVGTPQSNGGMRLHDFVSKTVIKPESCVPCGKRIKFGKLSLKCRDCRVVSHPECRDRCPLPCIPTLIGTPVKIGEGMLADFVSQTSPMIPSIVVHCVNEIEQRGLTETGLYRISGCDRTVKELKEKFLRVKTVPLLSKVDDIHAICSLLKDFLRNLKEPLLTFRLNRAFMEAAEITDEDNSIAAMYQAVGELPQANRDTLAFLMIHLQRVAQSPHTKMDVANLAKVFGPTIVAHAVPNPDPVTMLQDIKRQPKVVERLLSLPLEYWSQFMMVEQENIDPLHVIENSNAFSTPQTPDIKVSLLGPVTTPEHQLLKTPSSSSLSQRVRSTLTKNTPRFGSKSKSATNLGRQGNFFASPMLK
# Streptococcus = test: GAS UMAA2166 growth inhibition – luminescence, BacTiterGlo, counter-screen for streptokinase expression inhibitor project, dose response (AID 1915); format: functional, organism-based;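 note: potency for reduction of bacterial viability or growth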
# [3] = NIH-3T3 fibroblast cytotoxicity, dose response, cytotoxicity control, cell-based, fluorescence, Alamar Blue, secondary assay (AID 2327); format: functional;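 note: NIH-3T3 mouse fibroblasts cultured with fluconazole at 8 µg/mL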
# [4] = biological target: Heat shock protein HSP 90-alpha (Homo sapiens, UniProt P07900); format: functional, organism-based
# Phospholipase A2 = Phospholipase A2 (Homo sapiens, UniProt P04054); format: functional;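 note: confirmatory dose-response counterscreen on phospholipase A2, testing hits that came from an ultra-high-throughput screen for ATG4B inhibitors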
# [5] = biological target: Serine/threonine-protein phosphatase PP1-alpha catalytic subunit (Homo sapiens, UniProt P62136); test: inhibition of protein phosphatase 1 activity – biochemical, fluorescence, dose response (AID 2394)
# [6] = biological target: T3, Histone-lysine N-methyltransferase NSD2 (Homo sapiens, UniProt O96028); format: biochemical
# T3 sequence (O96028 whole entry): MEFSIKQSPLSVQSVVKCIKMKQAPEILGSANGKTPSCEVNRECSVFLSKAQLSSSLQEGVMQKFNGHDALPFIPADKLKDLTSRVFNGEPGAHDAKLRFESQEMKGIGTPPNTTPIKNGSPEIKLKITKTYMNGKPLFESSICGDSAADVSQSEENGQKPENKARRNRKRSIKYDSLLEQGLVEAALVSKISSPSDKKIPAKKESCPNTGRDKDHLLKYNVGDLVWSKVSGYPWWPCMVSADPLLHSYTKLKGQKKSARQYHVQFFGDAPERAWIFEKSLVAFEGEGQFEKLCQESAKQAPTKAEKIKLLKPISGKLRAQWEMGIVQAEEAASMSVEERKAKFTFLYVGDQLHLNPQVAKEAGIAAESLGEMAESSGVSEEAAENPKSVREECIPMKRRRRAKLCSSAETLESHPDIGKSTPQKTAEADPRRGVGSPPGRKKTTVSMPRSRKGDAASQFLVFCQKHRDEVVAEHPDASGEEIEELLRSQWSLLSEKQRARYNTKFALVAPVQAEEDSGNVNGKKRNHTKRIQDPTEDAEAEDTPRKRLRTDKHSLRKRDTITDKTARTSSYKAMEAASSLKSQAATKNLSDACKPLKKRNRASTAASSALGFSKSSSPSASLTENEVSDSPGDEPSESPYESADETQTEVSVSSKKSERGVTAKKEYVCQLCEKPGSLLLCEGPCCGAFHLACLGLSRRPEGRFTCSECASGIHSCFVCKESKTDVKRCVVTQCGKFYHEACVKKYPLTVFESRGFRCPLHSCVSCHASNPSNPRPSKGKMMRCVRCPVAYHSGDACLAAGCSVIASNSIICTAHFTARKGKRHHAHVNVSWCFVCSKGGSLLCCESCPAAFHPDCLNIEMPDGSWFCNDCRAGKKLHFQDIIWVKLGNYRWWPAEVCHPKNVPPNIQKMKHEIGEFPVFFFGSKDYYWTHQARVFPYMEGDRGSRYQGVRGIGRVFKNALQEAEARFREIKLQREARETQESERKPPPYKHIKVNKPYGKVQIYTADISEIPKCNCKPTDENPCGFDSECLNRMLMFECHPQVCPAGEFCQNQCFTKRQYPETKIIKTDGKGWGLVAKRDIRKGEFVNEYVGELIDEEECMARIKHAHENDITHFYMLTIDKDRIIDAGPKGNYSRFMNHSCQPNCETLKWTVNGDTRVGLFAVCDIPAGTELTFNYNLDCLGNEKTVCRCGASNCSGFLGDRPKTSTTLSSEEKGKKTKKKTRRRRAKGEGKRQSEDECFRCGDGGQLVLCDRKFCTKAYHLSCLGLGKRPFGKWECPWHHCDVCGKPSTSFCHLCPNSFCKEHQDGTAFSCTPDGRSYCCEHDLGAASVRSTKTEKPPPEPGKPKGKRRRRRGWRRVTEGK
# Chain of Serine/threonine-protein phosphatase PP1-alpha catalytic subunit (P62136 whole entry): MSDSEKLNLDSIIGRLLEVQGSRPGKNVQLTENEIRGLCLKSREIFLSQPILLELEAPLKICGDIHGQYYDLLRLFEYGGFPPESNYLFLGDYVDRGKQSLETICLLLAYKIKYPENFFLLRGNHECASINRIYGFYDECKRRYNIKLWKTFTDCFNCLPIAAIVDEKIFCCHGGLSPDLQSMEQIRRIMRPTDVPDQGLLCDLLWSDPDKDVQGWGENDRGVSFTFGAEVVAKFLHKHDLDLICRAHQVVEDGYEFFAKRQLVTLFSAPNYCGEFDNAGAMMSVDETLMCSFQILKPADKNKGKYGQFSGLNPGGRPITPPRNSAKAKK
# Chain of Phospholipase A2 (P04054 whole entry): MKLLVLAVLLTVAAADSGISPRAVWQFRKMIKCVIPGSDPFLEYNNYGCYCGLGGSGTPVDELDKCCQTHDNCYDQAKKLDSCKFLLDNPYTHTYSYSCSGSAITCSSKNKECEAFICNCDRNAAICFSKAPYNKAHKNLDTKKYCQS
SMILES,EC50 (Streptokinase A),EC50 [1],IC50 [2],EC50 (Streptococcus; Streptococcus),EC50 [3],AC50 [4],IC50 (Phospholipase A2),EC50 (Streptococcus),IC50 [5],AC50 [6]
O=C(Nc1ccccc1Cl)/C(Cl)=C(\Cl)[S+]([O-])c1ccccc1 (stereo unspecified),331 nM (active),> 38 µM (not active),22.8 µM (active),5.14 µM (active),3.5 µM (active),< 195 nM (active),,,,
CCCCCCCCCCCCCCCCn1cc[n+](C)c1,5.97 µM (active) and > 150 µM (not active),1.74 µM (active),,8.54 µM (active),149 µM (active),3480 nM (active),5.78 µM (active),4.64 µM (active),,
O=C(NC1(O)C(=O)c2ccccc2C1=O)c1ccccc1,,,,,,,,,49 µM (not active),6.87 µM (active)
Cc1ccc(C)c(S(=O)(=O)/N=C2\C=C(NS(=O)(=O)c3ccccc3)C(=O)c3ccccc32)c1,,,,,,,,,,> 20 µM (inactive)

# Reference: ChEMBL document CHEMBL1201862, “PubChem BioAssay data set” (2004)
